One assay addresses T1, Caspase-6 (Homo sapiens, UniProt P55212).
T1 sequence (P55212 whole entry): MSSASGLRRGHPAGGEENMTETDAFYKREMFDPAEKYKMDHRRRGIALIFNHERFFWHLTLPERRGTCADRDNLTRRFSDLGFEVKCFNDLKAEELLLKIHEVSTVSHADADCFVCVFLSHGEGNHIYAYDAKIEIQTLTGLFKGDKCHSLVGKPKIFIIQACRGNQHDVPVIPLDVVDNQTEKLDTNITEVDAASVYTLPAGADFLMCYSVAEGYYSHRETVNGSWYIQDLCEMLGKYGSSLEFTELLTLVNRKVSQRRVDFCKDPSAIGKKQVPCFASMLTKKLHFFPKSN
In words: inhibition of CASP6 peptide cleavage – biochemical, VEID-R110 fluorescence, cherry-pick, dose response (AID 720632).

In assay [1] the target is Transitional endoplasmic reticulum ATPase (Homo sapiens, UniProt P55072, C522A). The assay is described as follows: C522A mutant p97 ATPase inhibitors, dose response, counter-screen for p97 inhibitor project, biochemical, luminescence (AID 1544). A general note: A counterscreen serves to expose hits that act by an unwanted route or on another target.
Assay [2] can be described thus: THP-1 cell cytotoxicity, dose response, cytotoxicity control for non-replicating M. tuberculosis project (AID 489025). The class given is functional.
Assay [3] is described as follows: non-specific 3'UTR reporter inhibition in Clone20-Shn3RL – cell-based, Renilla luciferase, cherry-picked, counter-screen for Shn3 inhibitor project, dose response (AID 624133). The assay is classed as functional.
Assay [4] in a line: Vero E6 cell cytotoxicity, dose response, cytotoxicity control for non-replicating M. tuberculosis project, secondary assay (AID 492998). The assay is classed as functional, VeroE6. To be noted: Vero C1008.
The test system of a further assay is CHO. The assay is described as follows: CHO cell viability loss, potency – luminescence, cytotoxicity control for TLR9-MyD88 binding inhibitor project, dose response (AID 588339).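 Further: CHO cells stably coexpressing TLR9 and MyD88 fusions from primary screen; compound exposure lasted 48 hours before viability readout.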 The assay is classed as functional, cell-based, hamster. The note with it: Cricetulus griseus.
The next assay deals with Beta Lactamase (Pseudomonas aeruginosa, UniProt Q932Y6). In words: BLA reporter interference, concentration series – BLA reporter cells, FRET fluorescence, artefact control for TLR9-MyD88 binding inhibitor project, dose response (AID 588341).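 Further: cell based assay in CHO-K1 cells stably expressing beta-lactamase.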 The assay is classed as cell-based.

Structures are written as SMILES. Activity calls are given as the source filed them. Some results are limits rather than exact numbers.

These results are taken from ChEMBL document CHEMBL1201862, “PubChem BioAssay data set” (2004).

Beta Lactamase, sequence (Q932Y6 whole entry): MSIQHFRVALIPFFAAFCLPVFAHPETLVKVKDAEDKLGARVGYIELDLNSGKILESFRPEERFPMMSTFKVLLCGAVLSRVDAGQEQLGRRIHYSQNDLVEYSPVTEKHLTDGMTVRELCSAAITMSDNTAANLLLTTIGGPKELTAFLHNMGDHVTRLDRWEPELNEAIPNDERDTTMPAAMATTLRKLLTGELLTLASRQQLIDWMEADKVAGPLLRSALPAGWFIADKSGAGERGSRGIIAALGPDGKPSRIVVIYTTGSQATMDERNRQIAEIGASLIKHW
Transitional endoplasmic reticulum ATPase, sequence (P55072 2-806 C522A limits assumed): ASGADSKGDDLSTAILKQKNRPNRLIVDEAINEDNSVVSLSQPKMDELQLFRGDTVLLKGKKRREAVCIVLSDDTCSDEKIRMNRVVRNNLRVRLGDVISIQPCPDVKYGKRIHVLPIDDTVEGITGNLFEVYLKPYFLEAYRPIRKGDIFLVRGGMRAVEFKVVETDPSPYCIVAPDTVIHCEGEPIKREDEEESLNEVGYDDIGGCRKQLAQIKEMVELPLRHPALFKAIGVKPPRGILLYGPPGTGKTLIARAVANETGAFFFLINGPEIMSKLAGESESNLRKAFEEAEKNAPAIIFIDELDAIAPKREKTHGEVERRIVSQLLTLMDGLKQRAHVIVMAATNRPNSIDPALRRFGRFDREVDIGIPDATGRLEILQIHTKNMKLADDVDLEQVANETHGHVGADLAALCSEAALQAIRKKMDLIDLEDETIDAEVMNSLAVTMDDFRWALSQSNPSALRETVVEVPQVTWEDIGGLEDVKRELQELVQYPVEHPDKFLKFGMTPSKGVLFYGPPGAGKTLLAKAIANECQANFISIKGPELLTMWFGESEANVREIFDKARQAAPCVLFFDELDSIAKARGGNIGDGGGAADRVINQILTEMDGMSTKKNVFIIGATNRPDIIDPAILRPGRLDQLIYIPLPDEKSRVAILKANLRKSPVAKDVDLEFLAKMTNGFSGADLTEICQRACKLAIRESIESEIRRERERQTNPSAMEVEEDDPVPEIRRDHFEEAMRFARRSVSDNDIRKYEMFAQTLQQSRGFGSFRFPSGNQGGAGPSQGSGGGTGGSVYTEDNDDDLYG

What is called AC50 is the concentration giving half of the maximal activity seen. In the case of `CCN(c1ccccc1)c1cc2ccccc2c(=O)[nH]1`, on Caspase-6, the AC50 is 5.45 µM (active).
A word on the IC50: it is the point on the concentration scale where inhibition reaches its midpoint. As to `O=C(NC1(O)C(=O)c2ccccc2C1=O)c1c(Cl)cccc1Cl`, in assay [1], the IC50 was > 50 µM (not active).
What is called CC50 is the concentration that lowers cell viability or growth by half. On to `Cn1c(=O)[nH]c(=O)c2c1nc([N+](=O)[O-])n2Cc1ccccc1`, for which the CC50 in assay [2] is 3.23 µM (active); in assay [4], 6.75 µM (active). In addition, the AC50 in assay [3] was 5.91 µM (active). Further, the IC50 was 2.23 µM (active) with CHO and > 49.8 µM (inactive) at Beta Lactamase.
